Converted amounts (≈) assume the structure as drawn.
Tests used:
Assay in all cases: Bacterial growth minimal inhibitory concentration (microdilution, cation-adjusted Mueller-Hinton Broth)
Format in all cases: cell-based
[1] = test system: E. coli ATCC25922; conditions: quinolone-sensitive strain; for MIC: Escherichia coli, ATCC25922
Procedure: (§1) Minimal Inhibitory Concentrations (MICs; mg/L) were determined in cation-adjusted Mueller-Hinton Broth by a microdilution method following the description given in “Methods for Dilution Antimicrobial Susceptibility Tests for Bacteria that grow Aerobically”, Approved standard, 7th ed., Clinical and Laboratory Standards Institute (CLSI) Document M7-A7, Wayne, Pa., USA (2006).
(§2) All Example compounds were tested against several Gram-positive and Gram-negative bacteria. […] K. pneumoniae A-651 is a multiply-resistant strain (in particular quinolone-resistant), while E. coli ATCC25922 and P. aeruginosa ATCC27853 are quinolone-sensitive strains.

[2] = test system: K. pneumoniae A-651; conditions: multiply-resistant strain (in particular quinolone-resistant); for MIC: Klebsiella pneumoniae, A651
Procedure: as §1, §2

[3] = test system: P. aeruginosa ATCC27853; conditions: quinolone-sensitive strain; for MIC: Pseudomonas aeruginosa, ATCC27853
Procedure: as §1, §2

| MIC [1] | MIC [2] | MIC [3] | MIC for E. coli ATCC25922 [1] | MIC for K. Pneumoniae A-651 [2] | MIC for P. aeruginosa ATCC27853 [3] | SMILES |
| --- | --- | --- | --- | --- | --- | --- |
| ≤ 0.063 µg/mL | 0.25 µg/mL (≈ 0.548 µM) | 2 µg/mL (≈ 4.38 µM) | – | – | – | COc1ccc(-c2cc3c(s2)C(=O)N(CC[C@](C)(C(=O)NO)S(C)(=O)=O)C3)c(F)c1 [Example 2, (2R)-4-(2-(2-fluoro-4-methoxyphenyl)-6-oxo-4,6-dihydro-5H-thieno[2,3-c]pyrrol-5-yl)-N-hydroxy-2-methyl-2-(methylsulfonyl)butanamide] |
| 0.5 µg/mL (≈ 0.989 µM) | 0.5 µg/mL (≈ 0.989 µM) | 1 µg/mL (≈ 1.98 µM) | – | – | – | C[C@@](CCN1Cc2cc(C#CC#CC3CN([C@@H]4CCOC4)C3)sc2C1=O)(C(=O)NO)S(C)(=O)=O (single isomer, unassigned) [Example 37] |
| – | – | – | 0.25 mg/L | 0.5 mg/L | 1 mg/L | C[C@@](CCN1Cc2cc(C#CC#CC3CN(C4CC(O)C4)C3)sc2C1=O)(C(=O)NO)S(C)(=O)=O (stereo partly drawn) [Example 32, (2R)—N-hydroxy-4-(2-((1-((1r,3r)-3-hydroxycyclobutyl)azetidin-3-yl)buta-1,3-diyn-1-yl)-6-oxo-4,6-dihydro-5H-thieno[2,3-c]pyrrol-5-yl)-2-methyl-2-(methylsulfonyl)butanamide] |
| 0.125 µg/mL (≈ 0.277 µM) | 0.25 µg/mL (≈ 0.555 µM) | 0.5 µg/mL (≈ 1.11 µM) | – | – | – | C[C@@](CCN1Cc2cc(C#CC#C[C@H]3C[C@@H]3CO)sc2C1=O)(C(=O)NO)S(C)(=O)=O [Example 19, (2R)—N-hydroxy-4-(2-(((1S,2S)-2-(hydroxymethyl)cyclopropyl)buta-1,3-diyn-1-yl)-6-oxo-4,6-dihydro-5H-thieno[2,3-c]pyrrol-5-yl)-2-methyl-2-(methylsulfonyl)butanamide] |
| 0.25 µg/mL (≈ 0.495 µM) | 1 µg/mL (≈ 1.98 µM) | 2 µg/mL (≈ 3.96 µM) | – | – | – | CC(C)(CO)c1ccc(C#Cc2cc3c(s2)C(=O)N(CCC(C)(C(=O)NO)S(C)(=O)=O)C3)cc1 (racemic) [Reference Example 1, (2RS)—N-hydroxy-4-(2-((4-(1-hydroxy-2-methylpropan-2-yl)phenyl)ethynyl)-6-oxo-4,6-dihydro-5H-thieno[2,3-c]pyrrol-5-yl)-2-methyl-2-(methylsulfonyl)butanamide] |
| – | – | – | 0.5 mg/L | 2 mg/L | 1 mg/L | C[C@@](CCN1Cc2cc(C#CC#C[C@@H]3C[C@@H](O)[C@@H](O)C3)sc2C1=O)(C(=O)NO)S(C)(=O)=O [Example 21, (2R)-4-(2-(((1S,3R,4S)-3,4-dihydroxycyclopentyl)buta-1,3-diyn-1-yl)-6-oxo-4,6-dihydro-5H-thieno[2,3-c]pyrrol-5-yl)-N-hydroxy-2-methyl-2-(methylsulfonyl)butanamide] |
| ≤ 0.031 µg/mL | 0.125 µg/mL (≈ 0.289 µM) | 2 µg/mL (≈ 4.62 µM) | – | – | – | C[C@@](CCN1Cc2cc(C#Cc3ccccc3)sc2C1=O)(C(=O)NO)S(C)(=O)=O [Example 42, (2R)—N-hydroxy-2-methyl-2-(methylsulfonyl)-4-(6-oxo-2-(phenylethynyl)-4,6-dihydro-5H-thieno[2,3-c]pyrrol-5-yl)butanamide] |
| 0.125 µg/mL (≈ 0.246 µM) | 1 µg/mL (≈ 1.97 µM) | 2 µg/mL (≈ 3.94 µM) | – | – | – | C[C@@](CCN1Cc2cc(C#CC#C[C@H]3C[C@@H]3CN3CC(F)C3)sc2C1=O)(C(=O)NO)S(C)(=O)=O [Example 30, (2R)-4-(2-(((1S,2S)-2-((3-fluoroazetidin-1-yl)methyl)cyclopropyl)buta-1,3-diyn-1-yl)-6-oxo-4,6-dihydro-5H-thieno[2,3-c]pyrrol-5-yl)-N-hydroxy-2-methyl-2-(methylsulfonyl)butanamide] |
| 1 µg/mL (≈ 1.92 µM) | 2 µg/mL (≈ 3.83 µM) | 2 µg/mL (≈ 3.83 µM) | – | – | – | C[C@@](CCN1Cc2cc(C#CC#CC3CN(CC4(O)COC4)C3)sc2C1=O)(C(=O)NO)S(C)(=O)=O [Example 39, (2R)—N-hydroxy-4-(2-((1-((3-hydroxyoxetan-3-yl)methyl)azetidin-3-yl)buta-1,3-diyn-1-yl)-6-oxo-4,6-dihydro-5H-thieno[2,3-c]pyrrol-5-yl)-2-methyl-2-(methylsulfonyl)butanamide] |
| 0.125 µg/mL (≈ 0.278 µM) | 0.25 µg/mL (≈ 0.556 µM) | 1 µg/mL (≈ 2.22 µM) | – | – | – | CNC1(C#CC#Cc2cc3c(s2)C(=O)N(CC[C@](C)(C(=O)NO)S(C)(=O)=O)C3)CC1 [Example 5, (2R)—N-hydroxy-2-methyl-4-(2-((1-(methylamino)cyclopropyl)buta-1,3-diyn-1-yl)-6-oxo-4,6-dihydro-5H-thieno[2,3-c]pyrrol-5-yl)-2-(methylsulfonyl)butanamide] |
| 0.25 µg/mL (≈ 0.494 µM) | 0.5 µg/mL (≈ 0.989 µM) | 2 µg/mL (≈ 3.96 µM) | – | – | – | C[C@@](CCN1Cc2cc(C#CC#CC3CN(CC4COC4)C3)sc2C1=O)(C(=O)NO)S(C)(=O)=O [Example 28, (2R)—N-hydroxy-2-methyl-2-(methylsulfonyl)-4-(2-((1-(oxetan-3-ylmethyl)azetidin-3-yl)buta-1,3-diyn-1-yl)-6-oxo-4,6-dihydro-5H-thieno[2,3-c]pyrrol-5-yl)butanamide] |
| 1 µg/mL (≈ 1.96 µM) | 1 µg/mL (≈ 1.96 µM) | 2 µg/mL (≈ 3.92 µM) | – | – | – | C[C@@](CCN1Cc2cc(C#CC#CCOC(=O)N3CC(O)C3)sc2C1=O)(C(=O)NO)S(C)(=O)=O [Example 6, (3R)-5-(5-(4-(hydroxyamino)-3-methyl-3-(methylsulfonyl)-4-oxobutyl)-6-oxo-5,6-dihydro-4H-thieno[2,3-c]pyrrol-2-yl)penta-2,4-diyn-1-yl 3-hydroxyazetidine-1-carboxylate] |
| 0.125 µg/mL (≈ 0.233 µM) | 0.25 µg/mL (≈ 0.467 µM) | 1 µg/mL (≈ 1.87 µM) | – | – | – | CN(C)CC(=O)OC[C@H]1C[C@@H]1C#CC#Cc1cc2c(s1)C(=O)N(CC[C@](C)(C(=O)NO)S(C)(=O)=O)C2 [Example 20, ((1S,2S)-2-((5-((3R)-4-(hydroxyamino)-3-methyl-3-(methylsulfonyl)-4-oxobutyl)-6-oxo-5,6-dihydro-4H-thieno[2,3-c]pyrrol-2-yl)buta-1,3-diyn-1-yl)cyclopropyl)methyl dimethylglycinate] |
| 0.25 µg/mL (≈ 0.521 µM) | 2 µg/mL (≈ 4.17 µM) | 1 µg/mL (≈ 2.09 µM) | – | – | – | CN1[C@@H](CO)C[C@@H]1C#CC#Cc1cc2c(s1)C(=O)N(CC[C@](C)(C(=O)NO)S(C)(=O)=O)C2 [Example 40, (2R)—N-hydroxy-4-(2-(((2R,4R)-4-(hydroxymethyl)-1-methylazetidin-2-yl)buta-1,3-diyn-1-yl)-6-oxo-4,6-dihydro-5H-thieno[2,3-c]pyrrol-5-yl)-2-methyl-2-(methylsulfonyl)butanamide] |
| 1 µg/mL (≈ 2.22 µM) | 2 µg/mL (≈ 4.44 µM) | 2 µg/mL (≈ 4.44 µM) | – | – | – | CC(CCN1Cc2cc(C#CC#CC3(CO)CC3)sc2C1=O)(C(=O)NO)S(C)(=O)=O (racemic) [Reference Example 2, (2RS)—N-hydroxy-4-(2-((1-(hydroxymethyl)cyclopropyl)buta-1,3-diyn-1-yl)-6-oxo-4,6-dihydro-5H-thieno[2,3-c]pyrrol-5-yl)-2-methyl-2-(methylsulfonyl)butanamide] |
| 0.25 µg/mL (≈ 0.556 µM) | 1 µg/mL (≈ 2.22 µM) | 0.5 µg/mL (≈ 1.11 µM) | – | – | – | CN1CC(C#CC#Cc2cc3c(s2)C(=O)N(CC[C@](C)(C(=O)NO)S(C)(=O)=O)C3)C1 [Example 11, (2R)—N-hydroxy-2-methyl-4-(2-((1-methylazetidin-3-yl)buta-1,3-diyn-1-yl)-6-oxo-4,6-dihydro-5H-thieno[2,3-c]pyrrol-5-yl)-2-(methylsulfonyl)butanamide] |
| – | – | – | 0.25 mg/L | 1 mg/L | 2 mg/L | C[C@@](CCN1Cc2cc(C#Cc3ccc(C4CN(C5COC5)C4)cc3)sc2C1=O)(C(=O)NO)S(C)(=O)=O [Example 29, (2R)—N-hydroxy-2-methyl-2-(methylsulfonyl)-4-(2-((4-(1-(oxetan-3-yl)azetidin-3-yl)phenyl)ethynyl)-6-oxo-4,6-dihydro-H-thieno[2,3-c]pyrrol-5-yl)butanamide] |
| 0.5 µg/mL (≈ 1.08 µM) | 2 µg/mL (≈ 4.32 µM) | 1 µg/mL (≈ 2.16 µM) | – | – | – | C[C@@](CCN1Cc2cc(C#CC#C[C@H]3C[C@]3(F)CO)ccc2C1=O)(C(=O)NO)S(C)(=O)=O [Example 18, (2R)-4-(5-(((1R,2R)-2-fluoro-2-(hydroxymethyl)cyclopropyl)buta-1,3-diyn-1-yl)-1-oxoisoindolin-2-yl)-N-hydroxy-2-methyl-2-(methylsulfonyl)butanamide] |
| 0.5 µg/mL (≈ 1.04 µM) | 2 µg/mL (≈ 4.17 µM) | 1 µg/mL (≈ 2.09 µM) | – | – | – | CN1C[C@@H](C#CC#Cc2cc3c(s2)C(=O)N(CC[C@](C)(C(=O)NO)S(C)(=O)=O)C3)[C@@H]1CO [Example 35, (2R)—N-hydroxy-4-(2-(((2R,3R)-2-(hydroxymethyl)-1-methylazetidin-3-yl)buta-1,3-diyn-1-yl)-6-oxo-4,6-dihydro-5H-thieno[2,3-c]pyrrol-5-yl)-2-methyl-2-(methylsulfonyl)butanamide] |
